Values quoted from earlier work in patent US9920373B2, “Biomarkers of response to proteasome inhibitors” (MILLENNIUM PHARMACEUTICALS, INC., priority 2011, dated 2018).

Conditions: upon exposure to aqueous solutions or plasma; cited from earlier work

Structure (SMILES): CC(C)C[C@H](NC(=O)CNC(=O)c1cc(Cl)ccc1Cl)B1OC(=O)C(CC(=O)O)(CC(=O)O)O1 [MLN9708, 2,2′-{2-[(1R)-1-({[(2,5dichlorobenzoyl)amino]acetyl}amino)-3-methylbutyl]-5-oxo-1,3,2-dioxaborolane-4,4-diyl}diacetic acid]
- hydrolysis to the biologically active form: immediately hydrolyzes to MLN2238
